Assay results published in patent US6737383B1, “Herbicidal oxadiazolidines” (priority 1999, dated 2004).

Assays:
[1] = tested on: crabgrass; test: Test B pre/postemergence crabgrass; assay type: in vivo, Digitaria sanguinalis
How it was run: (§1)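 Test chemicals in a non-phytotoxic solvent mixture with surfactant were sprayed preemergence onto planted seeds and postemergence onto plants 2 to 18 cm tall (1- to 4-leaf stage). After twelve to sixteen days in a greenhouse, injury was visually rated against untreated controls from 0 (no effect) to 10 (complete control).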

[2] = tested on: smallflower flatsedge; test: Test B flood test smallflower flatsedge; assay type: in vivo, Cyperus difformis
How it was run: (§2)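 Plants were grown to the 2-leaf stage before treatment with test chemical, then held in a greenhouse for twelve to sixteen days. Injury was visually rated against untreated controls on a 0–10 scale, where 0 is no effect and 10 is complete control.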

[3] = tested on: bedstraw; test: Test B pre/postemergence bedstraw; assay type: in vivo, Galium aparine
How it was run: as §1

[4] = tested on: soybean; test: Test B pre/postemergence soybean; assay type: in vivo, Glycine max
How it was run: as §1

[5] = tested on: velvetleaf; test: Test B pre/postemergence velvetleaf; assay type: in vivo, Abutilon theophrasti
How it was run: as §1

[6] = tested on: wheat; test: Test B pre/postemergence wheat; assay type: in vivo, Triticum aestivum
How it was run: as §1

[7] = tested on: giant foxtail; test: Test B pre/postemergence giant foxtail; assay type: in vivo, Setaria faberii
How it was run: as §1

[8] = tested on: rice; test: Test B flood test rice; assay type: in vivo, Oryza sativa
How it was run: as §2

[9] = tested on: cocklebur; test: Test B pre/postemergence cocklebur; assay type: in vivo, Xanthium strumarium
How it was run: as §1

[10] = tested on: duck salad; test: Test B flood test duck salad; assay type: in vivo, Heteranthera limosa
How it was run: as §2

[11] = tested on: sugar beet; test: Test B pre/postemergence sugar beet; assay type: in vivo, Beta vulgaris
How it was run: as §1

[12] = tested on: surinam grass; test: Test B pre/postemergence surinam grass; assay type: in vivo, Brachiaria decumbens
How it was run: as §1

[13] = tested on: blackgrass; test: Test B pre/postemergence blackgrass; assay type: in vivo, Alopecurus myosuroides
How it was run: as §1

[14] = tested on: bamyardgrass; test: Test B flood test barnyardgrass; assay type: in vivo, Echinochloa crus-galli
How it was run: as §2

[15] = tested on: purple nutsedge; test: Test B pre/postemergence purple nutsedge; assay type: in vivo, Cyperus rotundus
How it was run: as §1

[16] = tested on: corn; test: Test B pre/postemergence corn; assay type: in vivo, Zea mays
How it was run: as §1

[17] = tested on: rape; test: Test B pre/postemergence rape; assay type: in vivo, Brassica napus
How it was run: as §1

[18] = Postemergence, Rate 125 g/ha, scale of 0 to 10 where 0 is no effect and 10 is complete control
[19] = Preemergence, Rate 62 g/ha, scale 0 to 10 (0 no effect, 10 complete control)
[20] = Preemergence, Rate 125 g/ha, 0 is no effect, 10 is complete control
[21] = Preemergence, Rate 250 g/ha, scale 0 to 10, 0 is no effect, 10 is complete control
[22] = Preemergence, Rate 500 g/ha, scale 0 to 10 (0 no effect, 10 complete control)
[23] = Rate 62 g/ha, Postemergence, scale of 0 to 10 where 0 is no effect and 10 is complete control
[24] = Rate 250 g/ha, Postemergence, scale 0 to 10, 0 is no effect, 10 is complete control
[25] = Rate 500 g/ha, Postemergence, scale 0 to 10
[26] = Postemergence (flood test species), Rate 125 g/ha, scale of 0 to 10 where 0 is no effect and 10 is complete control
[27] = Rate 62 g/ha, Postemergence section, flood test species, scale of 0 to 10 where 0 is no effect and 10 is complete control
[28] = Rate 250 g/ha, Postemergence (flood test), scale 0 to 10, 0 is no effect, 10 is complete control
[29] = Rate 250 g/ha, Pre-emergence, flood-test species, scale 0 to 10, 0 is no effect, 10 is complete control
[30] = Rate 500 g/ha, listed under Postemergence (flood test species), scale 0 to 10
[31] = Rate 2000 g/ha, Pre-emergence (as headed), scale 0 to 10
[32] = Rate 500 g/ha, headed Pre-emergence (flood test species), scale 0 to 10 (0 no effect, 10 complete control)
[33] = Rate 1000 g/ha, Pre-emergence (as headed), scale 0 to 10

In the case of `C=CCn1c(=O)on(C(=O)N(c2ccc(F)cc2)C2CC2)c1=O` [Compound 154], the “Crabgrass plant response rating” value [1, 18] was 0, the “Crabgrass plant response rating” value [1, 19] was 0 and the “Crabgrass plant response rating (0 to 10 scale)” value [1, 20] was 0. The “Crabgrass plant response rating” value [1, 21] was 0, the “Crabgrass plant response rating” value [1, 22] was 0 and the “Crabgrass plant response rating” value [1, 23] was 0. For the same compound, the “Plant response rating, Crabgrass” value [1, 24] was 1, the “Crabgrass plant response rating” value [1, 25] was 5 and the “S. Flatsedge plant response rating” value [2, 26] was 0. For the same compound, the “S. Flatsedge plant response rating” value ([2]; Pre-emergence, Rate 1000 g/ha, scale 0 to 10 (0 no effect, 10 complete control)) was 0, the “S. Flatsedge plant response rating” value [2, 27] was 0 and the “Plant response rating, S. Flatsedge” value [2, 28] was 0. For the same compound, the “S. Flatsedge plant response rating” value [2, 29] was 0, the “S. Flatsedge plant response rating” value [2, 30] was 0 and the “S. Flatsedge plant response rating” value ([2]; Rate 500 g/ha, Pre-emergence, flood test species, scale 0 to 10 (0 no effect, 10 complete control)) was 0. For the same compound, the “S. Flatsedge plant response rating” value [2, 31] was 0, the “Bedstraw plant response rating” value [3, 18] was 0 and the “Bedstraw plant response rating” value [3, 19] was 0. The “Bedstraw plant response rating (0 to 10 scale)” value [3, 20] was 0, the “Bedstraw plant response rating” value [3, 21] was 0 and the “Bedstraw plant response rating” value [3, 22] was 0. For the same compound, the “Bedstraw plant response rating” value [3, 23] was 0, the “Plant response rating, Bedstraw” value [3, 24] was 0 and the “Soybean plant response rating” value [4, 18] was 2. For the same compound, the “Soybean plant response rating” value [4, 19] was 0, the “Soybean plant response rating (0 to 10 scale)” value [4, 20] was 0 and the “Soybean plant response rating” value [4, 21] was 0. For the same compound, the “Soybean plant response rating” value [4, 22] was 0, the “Soybean plant response rating” value [4, 23] was 2 and the “Plant response rating, Soybean” value [4, 24] was 2. The “Soybean plant response rating” value [4, 25] was 3, the “Velvetleaf plant response rating” value [5, 19] was 0 and the “Velvetleaf plant response rating (0 to 10 scale)” value [5, 20] was 0. The “Velvetleaf plant response rating” value [5, 21] was 0, the “Velvetleaf plant response rating” value [5, 22] was 0 and the “Velvetleaf plant response rating” value [5, 23] was 0. For the same compound, the “Plant response rating, Velvetleaf” value [5, 24] was 0, the “Velvetleaf plant response rating” value [5, 25] was 0 and the “Wheat plant response rating” value [6, 19] was 0. The “Wheat plant response rating (0 to 10 scale)” value [6, 20] was 0, the “Wheat plant response rating” value [6, 21] was 0 and the “Wheat plant response rating” value [6, 22] was 0. For the same compound, the “Wheat plant response rating” value [6, 23] was 0, the “Plant response rating, Wheat” value [6, 24] was 0 and the “Wheat plant response rating” value [6, 25] was 0. For the same compound, the “Giant foxtail plant response rating” value [7, 18] was 0, the “Giant foxtail plant response rating” value [7, 19] was 0 and the “Giant foxtail plant response rating (0 to 10 scale)” value [7, 20] was 0. The “Giant foxtail plant response rating” value [7, 22] was 8, the “Giant foxtail plant response rating” value [7, 23] was 0 and the “Plant response rating, Giant foxtail” value [7, 24] was 1. The “Giant foxtail plant response rating” value [7, 25] was 3, the “Rice plant response rating” value [8, 26] was 0 and the “Rice plant response rating” value [8, 27] was 0. For the same compound, the “Plant response rating, Rice” value [8, 28] was 0, the “Rice plant response rating” value [8, 29] was 0 and the “Plant response rating, Rice” value [8, 32] was 0. The “Rice plant response rating” value [8, 30] was 0, the “Rice plant response rating” value [8, 33] was 0 and the “Rice plant response rating” value [8, 31] was 0. For the same compound, the “Cocklebur plant response rating” value [9, 18] was 0, the “Cocklebur plant response rating” value [9, 19] was 0 and the “Cocklebur plant response rating (0 to 10 scale)” value [9, 20] was 0. The “Cocklebur plant response rating” value [9, 21] was 0, the “Cocklebur plant response rating” value [9, 22] was 0 and the “Cocklebur plant response rating” value [9, 23] was 0. For the same compound, the “Plant response rating, Cocklebur” value [9, 24] was 0, the “Cocklebur plant response rating” value [9, 25] was 2 and the “Ducksalad plant response rating” value [10, 26] was 0. The “Ducksalad plant response rating” value [10, 27] was 0, the “Plant response rating, Ducksalad” value [10, 28] was 0 and the “Ducksalad plant response rating” value [10, 29] was 0. For the same compound, the “Plant response rating, Ducksalad” value [10, 32] was 0, the “Ducksalad plant response rating” value [10, 30] was 0 and the “Ducksalad plant response rating” value [10, 33] was 0. For the same compound, the “Ducksalad plant response rating” value [10, 31] was 0, the “Sugarbeets plant response rating” value [11, 18] was 0 and the “Sugarbeets plant response rating” value [11, 19] was 0. The “Sugarbeets plant response rating (0 to 10 scale)” value [11, 20] was 0, the “Sugarbeets plant response rating” value [11, 21] was 4 and the “Sugarbeets plant response rating” value [11, 22] was 6. For the same compound, the “Sugarbeets plant response rating” value [11, 23] was 0, the “Plant response rating, Sugarbeets” value [11, 24] was 0 and the “Sugarbeets plant response rating” value [11, 25] was 0. The “B. signalgrass plant response rating” value [12, 18] was 0, the “B. signalgrass plant response rating” value [12, 19] was 0 and the “B. signalgrass plant response rating (0 to 10 scale)” value [12, 20] was 0. For the same compound, the “B. signalgrass plant response rating” value [12, 21] was 0, the “B. signalgrass plant response rating” value [12, 22] was 4 and the “B. signalgrass plant response rating” value [12, 23] was 0. For the same compound, the “Plant response rating, B. signalgrass” value [12, 24] was 0, the “B. signalgrass plant response rating” value ([12]; Rate 500 g/ha, Postemergence, scale 0 to 10, 0 no effect, 10 complete control) was 2 and the “Blackgrass plant response rating” value [13, 18] was 0. The “Blackgrass plant response rating” value [13, 19] was 0, the “Blackgrass plant response rating (0 to 10 scale)” value [13, 20] was 0 and the “Blackgrass plant response rating” value [13, 21] was 3. For the same compound, the “Blackgrass plant response rating” value [13, 22] was 5, the “Blackgrass plant response rating” value [13, 23] was 0 and the “Plant response rating, Blackgrass” value [13, 24] was 0. The “Blackgrass plant response rating” value [13, 25] was 0, the “Barnyardgrass plant response rating” value [14, 26] was 0 and the “Barnyardgrass plant response rating” value [14, 27] was 0. For the same compound, the “Plant response rating, Barnyardgrass” value [14, 28] was 0, the “Barnyardgrass plant response rating” value [14, 29] was 0 and the “Plant response rating, Barnyardgrass” value [14, 32] was 0. For the same compound, the “Barnyardgrass plant response rating” value [14, 30] was 0, the “Barnyardgrass plant response rating” value [14, 33] was 0 and the “Barnyardgrass plant response rating” value ([14]; Rate 2000 g/ha, Pre-emergence (as headed), scale 0 to 10, 0 no effect, 10 complete control) was 0. The “Nutsedge plant response rating” value [15, 18] was 0, the “Nutsedge plant response rating” value [15, 19] was 0 and the “Nutsedge plant response rating (0 to 10 scale)” value [15, 20] was 0. The “Nutsedge plant response rating” value [15, 21] was 0, the “Nutsedge plant response rating” value [15, 22] was 0 and the “Nutsedge plant response rating” value [15, 23] was 0. For the same compound, the “Plant response rating, Nutsedge” value [15, 24] was 0, the “Nutsedge plant response rating” value [15, 25] was 0 and the “Corn plant response rating” value [16, 18] was 0. For the same compound, the “Corn plant response rating” value [16, 19] was 0, the “Corn plant response rating (0 to 10 scale)” value [16, 20] was 0 and the “Corn plant response rating” value [16, 21] was 0. The “Corn plant response rating” value [16, 22] was 0, the “Corn plant response rating” value [16, 23] was 0 and the “Plant response rating, Corn” value [16, 24] was 0. The “Corn plant response rating” value [16, 25] was 0, the “Rape plant response rating” value [17, 18] was 0 and the “Rape plant response rating” value [17, 19] was 0. The “Rape plant response rating (0 to 10 scale)” value [17, 20] was 0, the “Rape plant response rating” value [17, 21] was 0 and the “Rape plant response rating” value [17, 22] was 0. For the same compound, the “Rape plant response rating” value [17, 23] was 0, the “Plant response rating, Rape” value [17, 24] was 0 and the “Rape plant response rating” value [17, 25] was 0.
